US9617281B2, “Imidazo[2,1-b]thiazole derivatives, their preparation and use as medicaments” (LABORATORIOS DEL DR. ESTEVE S.A., priority 2012, dated 2017)
Structures can show the parent of a compound that is named as a salt.

Biological target: σ1-receptor (Cavia porcellus (Guinea pig), UniProt Q60492)
Experiment: σ1-receptor binding assay with [3H]-(+)-pentazocine in guinea pig brain membranes
Conditions: radioligand [3H]-(+)-pentazocine 5.0 nM, 150 min at 37° C.
Experimental: Brain membrane preparation and binding assays for the σ1-receptor were performed as described (DeHaven-Hudkins, D. L., L. C. Fleissner, and F. Y. Ford-Rice, 1992, Characterization of the binding of [^3H](+)pentazocine to a recognition sites in guinea pig brain, Eur. J. Pharmacol. 227, 371-378) with some modifications. Guinea pig brains were homogenized in 10 vols. (w/v) of Tris-HCl 50 mM 0.32 M sucrose, pH 7.4, with a Kinematica Polytron PT 3000 at 15000 r.p.m. for 30 s. The homogenate was centrifuged at 1000 g for 10 min at 4° C. and the supernatants collected and centrifuged again at 48000 g for 15 min at 4° C. The pellet was resuspended in 10 volumes of Tris-HCl buffer (50 mM, pH 7.4), incubated at 37° C. for 30 min, and centrifuged at 48000 g for 20 min at 4° C. Following this, the pellet was re-suspended in fresh Tris-HCl buffer (50 mM, pH 7.4) and stored on ice until use.
The radioligand used was [^3H]-(+)-pentazocine at 5.0 nM and the final volume was 200 μl. The incubation was initiated with the addition of 100 μl of membrane at a final tissue concentration of approximately 5 mg tissue net weight/mL and the incubation time was 150 m. at 37° C. After incubation, the membranes were collected onto pretreated glass fiber filterplate (MultiScreen-FC, Millipore), with polyethylenimine 0.1%. The filters were washed two times with 200 μl of washing buffer (50 mM Tris Cl, pH=7.4) and then 25 μl of Ecoscint H liquid scintillation cocktail were added. Microplates were allowed to set for several hours and then quantified by liquid scintillation spectrophotometry (1450 Microbeta, Wallac). Nonspecific binding was determined with 1 μM haloperidol.

σ1-receptor, sequence (Q60492 whole entry): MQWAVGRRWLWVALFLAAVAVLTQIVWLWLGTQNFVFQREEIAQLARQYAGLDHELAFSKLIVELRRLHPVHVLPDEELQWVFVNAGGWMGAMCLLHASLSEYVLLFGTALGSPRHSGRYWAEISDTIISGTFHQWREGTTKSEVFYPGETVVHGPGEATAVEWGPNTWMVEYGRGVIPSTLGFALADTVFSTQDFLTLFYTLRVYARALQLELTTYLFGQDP

Row | Compound | Ki [nM]
1 | c1ccc(-c2nn3cc(COCCN4CCCCCC4)nc3s2)cc1 [Compound 4, 6-((2-(azepan-1-yl)ethoxy)methyl)-2-phenylimidazo[2,1-b][1,3,4]thiadiazole maleate] | 168
2 | c1ccc(-c2cn3cc(CN4CCCCCC4)nc3s2)cc1 [Compound 6, 6-(azepan-1-ylmethyl)-2-phenylimidazo[2,1-b]thiazole maleate] | 16
3 | CN1CCN(Cc2cn3cc(-c4ccccc4)sc3n2)CC1 [Compound 7, 6-((4-methylpiperazin-1-yl)methyl)-2-phenylimidazo[2,1-b]thiazole maleate] | 56
4 | c1ccc(-c2cn3cc(COCCN4CCCCCC4)nc3s2)cc1 [Compound 9, 6-((2-(azepan-1-yl)ethoxy)methyl)-2-phenylimidazo[2,1-b]thiazole maleate] | 40
5 | c1ccc(-c2cn3cc(COCCN4CCCC4)nc3s2)cc1 [Compound 10, 2-phenyl-6-((2-(pyrrolidin-1-yl)ethoxy)methyl)imidazo[2,1-b]thiazole maleate] | 190
6 | CN1CCN(Cc2cn3nc(-c4ccccc4)sc3n2)CC1 [Compound 11, 6-((4-methylpiperazin-1-yl)methyl)-2-phenylimidazo[2,1-b][1,3,4]thiadiazole maleate] | 260
7 | c1ccc(-c2cn3cc(CN4CCCCCC4)sc3n2)cc1 [Compound 12, 2-(azepan-1-ylmethyl)-6-phenylimidazo[2,1-b]thiazole maleate] | 100
8 | CN1CCN(Cc2cn3cc(-c4ccc(F)cc4)sc3n2)CC1 [Compound 13, 2-(4-fluorophenyl)-6-((4-methylpiperazin-1-yl)methyl)imidazo[2,1-b]thiazole maleate] | 210
